The source made the active and inactive calls. The rule behind the calls is not given here.
Tests used:
[1] = system: 4T1; assay: Antitumor activity against metastatic mouse 4T1 cells implanted in BALB/c mouse assessed as tumor growth inhibition at 50 mg/kg, po qd administered for 14 consecutive days and measured every 2 days by electronic caliper method relative to control; assay type: functional; settings: 4T1, 336 h, time 14 day, read-out: TGI
[2] = Cmax in Sprague-Dawley rat at 5 mg/kg, iv measured for 96 hrs by LC-MS analysis; assay type: ADME, organism-based; design: time 96 hrs, dose 5 mg/kg, route iv; settings: in vivo
[3] = Observed AUCinfinity in Sprague-Dawley rat at 25 mg/kg, po measured for 96 hrs by LC-MS analysis; assay type: ADME, organism-based; design: dose 25 mg/kg, time 96 hrs, route po; settings: in vivo
[4] = system: 4T1; assay: Antitumor activity against metastatic mouse 4T1 cells implanted in BALB/c mouse assessed as tumor growth inhibition at 100 mg/kg, po qd administered for 14 consecutive days and measured every 2 days by electronic caliper method relative to control; assay type: functional; settings: 4T1, 336 h, time 14 day, read-out: TGI
[5] = biological target: Tyrosine-protein kinase Mer (Homo sapiens, UniProt Q12866); assay: Binding affinity to MERTK (unknown origin) assessed as dissociation constant by competition binding assay
[6] = system: 4T1; assay: Inhibition of ERK phosphorylation in mouse 4T1 cells measured after 6 hrs by Western blot analysis; assay type: cell-based; settings: dose 0.8-500 nM, DDE = dose-dependent effect
[7] = Inhibition of TGF-beta induced cell invasion in human MDA-MB-231 cells at 1 uM incubated for 24 hrs by crystal violet staining based transwell assay relative to control; assay type: functional
[8] = biological target: Vascular endothelial growth factor receptor 1 (Homo sapiens, UniProt P17948); assay: Binding affinity to FLT1 (unknown origin) assessed as dissociation constant by competition binding assay
Sequence of Vascular endothelial growth factor receptor 1 (P17948 whole entry): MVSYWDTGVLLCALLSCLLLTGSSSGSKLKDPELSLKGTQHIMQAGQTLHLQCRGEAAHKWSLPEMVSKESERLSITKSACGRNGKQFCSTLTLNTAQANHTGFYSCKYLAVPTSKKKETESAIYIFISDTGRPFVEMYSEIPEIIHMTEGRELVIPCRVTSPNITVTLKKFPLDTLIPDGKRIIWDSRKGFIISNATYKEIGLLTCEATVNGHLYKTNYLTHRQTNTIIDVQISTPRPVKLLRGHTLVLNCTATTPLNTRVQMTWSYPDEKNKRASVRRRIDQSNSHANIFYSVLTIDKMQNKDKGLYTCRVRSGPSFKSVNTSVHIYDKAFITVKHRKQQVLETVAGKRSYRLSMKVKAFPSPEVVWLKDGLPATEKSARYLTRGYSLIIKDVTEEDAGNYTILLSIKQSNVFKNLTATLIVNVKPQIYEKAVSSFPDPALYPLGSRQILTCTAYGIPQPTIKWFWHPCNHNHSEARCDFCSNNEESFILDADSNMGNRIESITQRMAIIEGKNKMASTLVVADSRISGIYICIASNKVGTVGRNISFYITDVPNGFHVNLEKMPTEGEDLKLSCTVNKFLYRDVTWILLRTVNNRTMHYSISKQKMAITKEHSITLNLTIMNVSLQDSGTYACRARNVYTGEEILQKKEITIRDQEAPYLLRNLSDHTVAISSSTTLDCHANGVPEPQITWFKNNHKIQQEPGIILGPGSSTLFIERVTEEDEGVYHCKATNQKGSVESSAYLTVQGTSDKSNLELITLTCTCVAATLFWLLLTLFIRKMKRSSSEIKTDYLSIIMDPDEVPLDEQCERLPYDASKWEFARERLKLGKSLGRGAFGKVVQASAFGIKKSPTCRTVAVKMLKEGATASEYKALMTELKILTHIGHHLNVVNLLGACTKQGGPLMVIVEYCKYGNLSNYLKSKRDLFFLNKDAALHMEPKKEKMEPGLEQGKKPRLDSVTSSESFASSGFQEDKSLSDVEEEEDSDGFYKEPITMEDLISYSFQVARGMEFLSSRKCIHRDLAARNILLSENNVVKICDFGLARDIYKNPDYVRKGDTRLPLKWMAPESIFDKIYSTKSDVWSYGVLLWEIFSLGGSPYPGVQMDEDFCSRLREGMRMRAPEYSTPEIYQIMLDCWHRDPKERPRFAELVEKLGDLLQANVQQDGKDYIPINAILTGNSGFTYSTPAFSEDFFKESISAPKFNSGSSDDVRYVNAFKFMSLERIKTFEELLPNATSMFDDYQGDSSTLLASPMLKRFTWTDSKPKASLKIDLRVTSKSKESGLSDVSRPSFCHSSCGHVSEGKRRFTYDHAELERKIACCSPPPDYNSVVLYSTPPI

[9] = Inhibition of TGF-beta induced cell invasion in human MDA-MB-231 cells at 3 uM incubated for 24 hrs by crystal violet staining based transwell assay relative to control; assay type: functional
[10] = system: 4T1; assay: Antitumor activity against metastatic mouse 4T1 cells implanted in BALB/c mouse assessed as inhibition of liver micrometastasis at 50 to 100 mg/kg, po qd administered for 14 consecutive days by H & E staining based microscopic analysis; assay type: functional, organism-based; settings: dose 50-100 mg/kg, time 14.0 day
[11] = biological target: Mast/stem cell growth factor receptor Kit (Homo sapiens, UniProt P10721); assay: Binding affinity to KIT (unknown origin) assessed as dissociation constant by competition binding assay
[12] = Toxicity in BALB/c mouse implanted with mouse 4T1 cells assessed as body weight loss at 50 to 100 mg/kg, po qd administered for 14 consecutive days and measured every 2 days; assay type: organism-based; settings: in vivo, 336 h, dose 50-100 mg/kg, time 14 day
[13] = biological target: Receptor-type tyrosine-protein kinase FLT3 (Homo sapiens, UniProt P36888); assay: Inhibition of FLT3 (unknown origin)
[14] = biological target: T1, Macrophage colony-stimulating factor 1 receptor (Homo sapiens, UniProt P07333); assay: Inhibition of CSF1R (unknown origin)
T1 sequence (P07333 whole entry): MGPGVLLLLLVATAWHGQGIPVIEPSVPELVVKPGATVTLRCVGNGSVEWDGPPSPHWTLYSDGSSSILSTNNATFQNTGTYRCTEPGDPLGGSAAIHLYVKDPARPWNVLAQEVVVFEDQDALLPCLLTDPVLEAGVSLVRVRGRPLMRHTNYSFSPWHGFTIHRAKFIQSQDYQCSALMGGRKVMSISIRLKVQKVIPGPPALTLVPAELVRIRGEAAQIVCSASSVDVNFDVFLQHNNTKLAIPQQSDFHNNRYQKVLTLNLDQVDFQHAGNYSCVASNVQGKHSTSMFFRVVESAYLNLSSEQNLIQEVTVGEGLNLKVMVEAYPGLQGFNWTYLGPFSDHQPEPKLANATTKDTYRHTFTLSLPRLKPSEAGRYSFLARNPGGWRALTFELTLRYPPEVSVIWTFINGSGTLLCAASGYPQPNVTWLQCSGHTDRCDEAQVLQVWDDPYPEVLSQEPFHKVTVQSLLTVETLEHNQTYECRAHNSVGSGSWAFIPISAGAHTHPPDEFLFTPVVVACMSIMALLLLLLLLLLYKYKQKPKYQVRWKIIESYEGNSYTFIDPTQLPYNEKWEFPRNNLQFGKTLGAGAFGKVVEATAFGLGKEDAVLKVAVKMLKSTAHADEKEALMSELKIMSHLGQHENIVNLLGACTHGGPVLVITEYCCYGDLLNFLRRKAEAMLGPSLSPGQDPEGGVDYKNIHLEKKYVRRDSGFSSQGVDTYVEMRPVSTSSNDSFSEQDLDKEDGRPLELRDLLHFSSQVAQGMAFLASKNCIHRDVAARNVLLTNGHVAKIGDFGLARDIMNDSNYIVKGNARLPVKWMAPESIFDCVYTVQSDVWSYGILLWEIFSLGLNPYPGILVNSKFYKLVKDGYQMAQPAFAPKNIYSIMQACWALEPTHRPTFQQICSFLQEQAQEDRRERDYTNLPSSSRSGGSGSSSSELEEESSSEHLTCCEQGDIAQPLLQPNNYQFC

[15] = system: 4T1; assay: Antitumor activity against metastatic mouse 4T1 cells implanted in BALB/c mouse assessed as reduction in number of liver metastases at 100 mg/kg, po qd administered for 14 consecutive days by H & E staining based microscopic analysis (reference value: 24.7 +/- 6.7); assay type: functional; settings: time 14 day
[16] = Half life in Sprague-Dawley rat at 25 mg/kg, po measured for 96 hrs by LC-MS analysis; assay type: ADME, organism-based; settings: in vivo
[17] = system: MDA-MB-231; assay: Inhibition of TGF-beta induced cell migration in human MDA-MB-231 cells assessed as reduction in wound closure at 1 to 3 uM incubated for 24 hrs by bright field microscopy based wound healing assay; assay type: functional; settings: dose 1-3 µM
[18] = biological target: Platelet-derived growth factor receptor beta (Homo sapiens, UniProt P09619); assay: Inhibition of PDGFRB (unknown origin)
Sequence of Platelet-derived growth factor receptor beta (P09619 whole entry): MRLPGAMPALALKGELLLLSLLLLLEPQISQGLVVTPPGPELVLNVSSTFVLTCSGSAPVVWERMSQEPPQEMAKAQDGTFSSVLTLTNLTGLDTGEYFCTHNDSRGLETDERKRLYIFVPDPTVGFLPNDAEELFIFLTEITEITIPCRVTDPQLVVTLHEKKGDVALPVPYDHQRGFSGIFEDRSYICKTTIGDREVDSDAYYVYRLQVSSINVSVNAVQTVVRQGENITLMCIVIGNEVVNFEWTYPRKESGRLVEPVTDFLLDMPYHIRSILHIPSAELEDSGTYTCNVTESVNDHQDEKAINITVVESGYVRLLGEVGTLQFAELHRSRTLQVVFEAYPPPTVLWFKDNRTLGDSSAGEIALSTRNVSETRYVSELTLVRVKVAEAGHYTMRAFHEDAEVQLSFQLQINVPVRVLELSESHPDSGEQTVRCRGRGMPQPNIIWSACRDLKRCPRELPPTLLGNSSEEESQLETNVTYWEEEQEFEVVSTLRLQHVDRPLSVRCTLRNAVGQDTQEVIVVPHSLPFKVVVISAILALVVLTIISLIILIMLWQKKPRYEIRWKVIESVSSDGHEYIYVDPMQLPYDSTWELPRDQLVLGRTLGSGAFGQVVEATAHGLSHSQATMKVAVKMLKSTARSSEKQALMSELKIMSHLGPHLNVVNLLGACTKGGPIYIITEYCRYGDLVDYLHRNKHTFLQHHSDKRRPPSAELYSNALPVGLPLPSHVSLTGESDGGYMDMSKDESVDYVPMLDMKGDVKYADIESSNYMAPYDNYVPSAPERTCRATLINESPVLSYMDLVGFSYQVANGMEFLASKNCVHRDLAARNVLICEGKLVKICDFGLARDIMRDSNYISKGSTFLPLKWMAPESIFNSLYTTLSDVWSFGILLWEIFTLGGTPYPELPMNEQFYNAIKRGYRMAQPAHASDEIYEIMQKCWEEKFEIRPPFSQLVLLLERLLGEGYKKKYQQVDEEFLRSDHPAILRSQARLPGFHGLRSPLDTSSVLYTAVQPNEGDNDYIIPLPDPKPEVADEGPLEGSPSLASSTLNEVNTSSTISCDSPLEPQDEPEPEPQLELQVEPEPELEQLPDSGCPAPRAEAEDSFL

[19] = system: MDA-MB-231; assay: Inhibition of TGF-beta induced epithelial mesenchymal transition process in human metastatic MDA-MB-231 cells assessed as restoration of N-cadherin expression incubated for 3 days by Western blot analysis; assay type: functional, cell-based; settings: dose 0.11-3 µM, time 3.0 day, DDE = dose-dependent effect
[20] = Half life in Sprague-Dawley rat at 5 mg/kg, iv measured for 96 hrs by LC-MS analysis; assay type: ADME, organism-based; settings: in vivo
[21] = biological target: Proto-oncogene tyrosine-protein kinase receptor Ret (Homo sapiens, UniProt P07949); assay: Binding affinity to RET (unknown origin) assessed as dissociation constant by competition binding assay
[22] = Oral bioavailability in Sprague-Dawley rat at 25 mg/kg measured for 96 hrs by LC-MS analysis; assay type: ADME, organism-based; settings: in vivo
[23] = biological target: Angiopoietin-1 receptor (Homo sapiens, UniProt Q02763); assay: Binding affinity to TIE2 (unknown origin) assessed as dissociation constant by competition binding assay
Sequence of Angiopoietin-1 receptor (Q02763 whole entry): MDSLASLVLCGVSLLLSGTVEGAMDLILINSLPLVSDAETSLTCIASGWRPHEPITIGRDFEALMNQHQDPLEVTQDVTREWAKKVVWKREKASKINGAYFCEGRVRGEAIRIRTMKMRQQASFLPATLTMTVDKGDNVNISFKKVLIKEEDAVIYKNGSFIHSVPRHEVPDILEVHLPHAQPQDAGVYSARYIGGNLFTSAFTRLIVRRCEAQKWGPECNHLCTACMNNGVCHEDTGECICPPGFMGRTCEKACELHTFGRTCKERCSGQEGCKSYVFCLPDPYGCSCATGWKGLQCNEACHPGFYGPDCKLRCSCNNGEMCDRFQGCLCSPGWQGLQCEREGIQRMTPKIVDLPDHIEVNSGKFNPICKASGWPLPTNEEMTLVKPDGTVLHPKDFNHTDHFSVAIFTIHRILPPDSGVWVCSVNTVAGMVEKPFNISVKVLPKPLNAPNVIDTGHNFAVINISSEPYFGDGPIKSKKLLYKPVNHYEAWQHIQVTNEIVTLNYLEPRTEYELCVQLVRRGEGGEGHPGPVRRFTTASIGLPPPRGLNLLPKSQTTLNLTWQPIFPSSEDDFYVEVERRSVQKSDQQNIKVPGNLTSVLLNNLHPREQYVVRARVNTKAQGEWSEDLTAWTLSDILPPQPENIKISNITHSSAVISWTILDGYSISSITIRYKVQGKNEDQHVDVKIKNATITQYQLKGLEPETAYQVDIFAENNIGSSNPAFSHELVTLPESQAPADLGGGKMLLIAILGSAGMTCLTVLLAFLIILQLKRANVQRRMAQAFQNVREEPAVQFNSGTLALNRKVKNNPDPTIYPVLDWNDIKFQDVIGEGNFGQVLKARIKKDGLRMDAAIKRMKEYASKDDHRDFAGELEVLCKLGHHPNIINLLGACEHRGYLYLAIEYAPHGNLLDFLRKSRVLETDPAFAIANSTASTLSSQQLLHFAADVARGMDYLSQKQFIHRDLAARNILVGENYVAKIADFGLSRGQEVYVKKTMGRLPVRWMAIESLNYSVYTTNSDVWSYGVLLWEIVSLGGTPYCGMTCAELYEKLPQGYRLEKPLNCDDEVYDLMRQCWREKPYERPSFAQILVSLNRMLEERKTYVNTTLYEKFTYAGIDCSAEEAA

[24] = Observed MRTinfinity in Sprague-Dawley rat at 25 mg/kg, po measured for 96 hrs by LC-MS analysis; assay type: ADME, organism-based; settings: in vivo
[25] = biological target: Mitogen-activated protein kinase kinase kinase kinase 5 (Homo sapiens, UniProt Q9Y4K4); assay: Binding affinity to MAP4K5 (unknown origin) assessed as dissociation constant by competition binding assay
[26] = biological target: Vascular endothelial growth factor receptor 3 (Homo sapiens, UniProt P35916); assay: Binding affinity to FLT4 (unknown origin) assessed as dissociation constant by competition binding assay
[27] = biological target: Tyrosine-protein kinase receptor UFO (Homo sapiens) (UniProt P30530); assay: Inhibition of AXL phosphorylation at Tyr702 residue in human MDA-MB-231 cells measured after 6 hrs by Western blot analysis; assay type: cell-based; settings: dose 0.8-500 nM, DDE = dose-dependent effect
[28] = AUClast in Sprague-Dawley rat at 25 mg/kg, po measured for 96 hrs by LC-MS analysis; assay type: ADME, organism-based; design: time 96 hrs, dose 25 mg/kg, route po; settings: in vivo
[29] = biological target: Serine/threonine-protein kinase AKT (Homo sapiens) (UniProt P31751+Q9Y243+P31749); assay: Inhibition of AKT phosphorylation at S473 residue in human MDA-MB-231 cells measured after 6 hrs by Western blot analysis; assay type: cell-based; settings: dose 0.8-500 nM, DDE = dose-dependent effect
[30] = Tmax in Sprague-Dawley rat at 25 mg/kg, po measured for 96 hrs by LC-MS analysis; assay type: ADME, organism-based; settings: in vivo
[31] = biological target: T1, Macrophage colony-stimulating factor 1 receptor; assay: Binding affinity to CSF1R (unknown origin) assessed as dissociation constant by competition binding assay
[32] = Inhibition of TGF-beta induced cell invasion in human MDA-MB-231 cells at 0.11 uM incubated for 24 hrs by crystal violet staining based transwell assay relative to control; assay type: functional
[33] = Tmax in Sprague-Dawley rat at 5 mg/kg, iv measured for 96 hrs by LC-MS analysis; assay type: ADME, organism-based; settings: in vivo
[34] = Toxicity in BALB/c mouse implanted with mouse 4T1 cells assessed as effect on implantation rate at 50 to 100 mg/kg, po qd administered for 14 consecutive days and measured every 2 days; assay type: organism-based; settings: in vivo, 336 h, dose 50-100 mg/kg, time 14 day
[35] = system: 4T1; assay: In vivo inhibition of AXL phosphorylation in BALB/c mouse implanted with mouse 4T1 cells administered orally once a day for 14 days; assay type: functional, organism-based; settings: dose 50-100 mg/kg, route po, time 14.0 day, DDE = dose-dependent effect

COc1cc2c(Oc3ccc(Nc4nn(C)cc4C(=O)NC4CCCCC4)cc3F)ccnc2cc1OCCCN1CCOCC1
inhibition in vivo at 50 mg/kg [1]: 78% | Cmax [2]: 12300 ng/mL | AUC(0-inf) [3]: 8630 ng·h/mL | inhibition in vivo at 100 mg/kg [4]: 95.9% | Kd [5]: 560 nM | inhibition [6]: Dde | inhibition at 1 µM [7]: 56.5% | Kd [8]: 14 nM | inhibition at 3 µM [9]: 70.4% | inhibition [10]: Active | Kd [11]: 2.6 nM | Activity [12]: Non-Toxic | IC50 [13]: 156 nM | IC50 [14]: 26.7 nM | Activity [15]: 2.8 | half-life [16]: 253 min | inhibition [17]: Active | IC50 [18]: > 10 µM | inhibition [19]: Dde | half-life [20]: 199 min | Kd [21]: 600 nM | bioavailability [22]: 14.4% | Kd [23]: 950 nM | MRT inf [24]: 6.55 h | Kd [25]: > 1000 nM | Kd [26]: 19 nM | inhibition [27]: Dde | AUC(0-t) at 96 h [28]: 8410 ng·h/mL | inhibition [29]: Dde | Tmax [30]: 3 h | Kd [31]: 29 nM | inhibition at 0.11 µM [32]: 22.6% | Tmax [33]: 4.8 min | Activity [34]: Non-Toxic | inhibition [35]: Dde

From ChEMBL document CHEMBL5096241, “Discovery of 3-Aminopyrazole Derivatives as New Potent and Orally Bioavailable AXL Inhibitors” (J Med Chem, 2022)
